Values joined by “and” are separate entries in the source; they are usually repeats but may differ in a detail not shown here. Equal entries are not always repeated.
How the values were obtained:
[1] = excipient alone; cited from earlier work
colon adenocarcinoma #38 = assay: antitumor activity in mice against colon adenocarcinoma #38; type: in vivo
Protocol: (§1) Representative examples of the invention were tested for antitumor activity in mice according to the following procedure:
(§2) The animals were pooled, implanted subcutaneously with 30 to 60 mg tumor fragments by 12-gauge trocar, and again pooled before unselective distribution to the various treatment and control groups. For early-stage treatment, chemotherapy was started within 1 to 5 days after tumor implantation while the number of cells was relatively small (10^7 to 10^8 cells). For advanced-stage treatment, chemotherapy was delayed until the tumor became relatively large (200 to 300 mg in size). A 300-mg tumor contains approximately 3×10^8 total cells. […] Tumors were measured with a caliper weekly (or twice weekly for the more rapidly growing tumors). Mice were sacrificed when their tumors reached 1500 mg (i.e., before they can cause the animal discomfort). Tumor weights were estimated from two-dimensional measurements.
(§3) The treatment and control groups were measured when the control group tumors reached approximately 700 to 1200 mg in size (Median of Group). The median tumor weight of each group was determined (including zeros). […] A T/C value <10% is considered to indicate highly significant antitumor activity.
The results are shown in Table I for pancreatic ductal adenocarcinoma #03 and in Table 2 for colon adenocarcinoma #38.

Mammary 16/C/Adr = assay: antitumor activity in mice against Mammary 16/C/Adr (adriamycin resistant); type: in vivo
Protocol: as §1
(§4) The animals were pooled, implanted subcutaneously with 30 to 60 mg tumor fragments by 12-gauge trocar, and again pooled before unselective distribution to the various treatment and control groups. For early-stage treatment, chemotherapy was started within 1 to 5 days after tumor implantation while the number of cells was relatively small (10^7 to 10^8 cells). For advanced-stage treatment, chemotherapy was delayed until the tumor became relatively large (200 to 300 mg in size). A 300-mg tumor contains approximately 3×10^8 total cells. Tumors within a given advanced-stage trial were within a 2.5-fold size range for 90% of the animals. Tumors were measured with a caliper weekly (or twice weekly for the more rapidly growing tumors). Mice were sacrificed when their tumors reached 1500 mg (i.e., before they can cause the animal discomfort). Tumor weights were estimated from two-dimensional measurements.
(§5) The treatment and control groups were measured when the control group tumors reached approximately 700 to 1200 mg in size (Median of Group). The median tumor weight of each group was determined (including zeros). The T/C value (weight of treated tumors over the weight of control tumors) in percent is an indication of antitumor effectiveness: A T/C equal to or less than 42% is considered significant antitumor activity by the Drug Evaluation Branch of the Division of Cancer Treatment (NCl). A T/C value <10% is considered to indicate highly significant antitumor activity. A body weight loss nadir (mean of group) of greater than 20% or greater than 20% drug-deaths is considered to indicate an excessively toxic dosage.

Colon 51/A = assay: antitumor activity in mice against Colon 51/A; type: in vivo; settings: p.o. days 3-7
Protocol: as §1, §2, §3

[2] = system: pancreatic ductal adenocarcinoma #03; assay: antitumor activity in mice against pancreatic ductal adenocarcinoma #03 (Panc 03); type: in vivo
[3] = system: Human Adeno Squamous Lung #125; assay: antitumor activity in mice against Human Adeno Squamous Lung #125; type: in vivo; settings: 16 hr infusion days 7, 20
Mammary 16/C = assay: antitumor activity in mice against Mammary 16/C; type: in vivo; settings: 4 hr infusion days 1, 4; for Tumor Free: 13 days of observation
Protocol: as §1, §2, §3

Colon #51 = assay: antitumor activity in mice against Colon #51; type: in vivo; settings: 3 hr infusion days 3, 7; for Tumor Free: 50 days of observation
Protocol: as §1, §4, §5

[4] = 600 mg/kg total, 4 hr infusion days 6, 13
[5] = 960 mg/kg total, 4 hr infusion days 6, 13
[6] = 960 mg/kg total, 3 hr infusion days 1, 4

For `OC[C@H]1O[C@@](CO)(O[C@H]2O[C@H](CO)[C@@H](O)[C@H](O)[C@H]2O)[C@@H](O)[C@@H]1O` [sucrose], the “glass transition temperature of excipient” value [1] is given as -32 °C.

In the case of `CCN(CC)CCNc1ccc(CN(C)S(C)(=O)=O)c2sc3ccccc3c(=O)c12` [Example 8(a), N-[[1-[[2-(Diethylamino)ethyl)amino]-9-oxothioxanthen-yl]methyl]N-methylmethanesulfonamide], the “T/C Value” (colon adenocarcinoma #38; 112 mg/kg total, i.p. days 3-10) is reported as 3%, the “T/C Value” (colon adenocarcinoma #38; 196 mg/kg total, i.p. days 3-10) is reported as 0% and the “T/C Value” (colon adenocarcinoma #38; 275 mg/kg total, p.o. days 3-7) is reported as 0%. The “T/C Value” (colon adenocarcinoma #38; 340 mg/kg total, i.p. days 3-10) was 0%, the “T/C Value” (colon adenocarcinoma #38; 550 mg/kg total, p.o. days 3-7) was 0% and the “Drug Deaths” value (colon adenocarcinoma #38; mouse, in vivo) was 0. For the same molecule, the “Drug Deaths” value (Mammary 16/C/Adr; mouse, in vivo) was 5/6 and 3/6 and 0/4, the “T/C Value” (Colon 51/A; 250 mg/kg total) was 16% and the “Wt. Loss at Nadir” value (Colon 51/A; 250 mg/kg total) was -1.6 g/mouse. For the same molecule, the “T/C Value” (Colon 51/A; 500 mg/kg total) was 0% and the “Wt. Loss at Nadir” value (Colon 51/A; 500 mg/kg total) was -4.6 g/mouse.

For `CCN(CC)CCNc1ccc(CNC)c2sc3ccccc3c(=O)c12` [Example 5, 1-[[2-(Diethylamino)ethyl]amino]-4-[(methylamino)-methyl]thioxanthen-9-one], the T/C [2] was 0%, the “T/C Value” ([2]; 222 mg/kg total, 3 hr infusion) was 0% and the “Wt. Loss at Nadir” value ([2]; 222 mg/kg total, 3 hr infusion) was -1.6 g/mouse. The “Tumor Free” value ([2]; 222 mg/kg total, 3 hr infusion, 108 days of observation) was 1/4, the “Weight Loss” value ([2]; Table 1, average body weight 25 g, total doses as in E1) was 1.6 g and the “Drug Deaths” value ([2]; Table 1, total doses as in E1) was 0. The “activity against colon adenocarcinoma #38” value (colon adenocarcinoma #38; 300 mg/kg p.o.) was “active”, the “T/C Value” (colon adenocarcinoma #38; 477 mg/kg total, 3-15 bolus) was 9% and the “Wt. Loss at Nadir” value (colon adenocarcinoma #38; 477 mg/kg total, 3-15 bolus) was -2.8 g/mouse. For the same molecule, the “Tumor Free” value (colon adenocarcinoma #38; 477 mg/kg total, 3-15 bolus, 100 days of observation) was 0/5, the “T/C Value” (colon adenocarcinoma #38; [4]) was 26% and the “Wt. Loss at Nadir” value (colon adenocarcinoma #38; [4]) was -2.0 g/mouse. For the same molecule, the “Tumor Free” value (colon adenocarcinoma #38; 600 mg/kg total, 4 hr infusion days 6, 13, 20 days of observation) was 0/7, the “Tumor Free” value (colon adenocarcinoma #38; 600 mg/kg total, 4 hr infusion days 6, 13, 100 days of observation) was 0/7 and the “T/C Value” (colon adenocarcinoma #38; 732 mg/kg total, 3-15 bolus) was 0%. The “Wt. Loss at Nadir” value (colon adenocarcinoma #38; 732 mg/kg total, 3-15 bolus) was -2.0 g/mouse, the “Tumor Free” value (colon adenocarcinoma #38; 732 mg/kg total, 3-15 bolus, 100 days of observation) was 1/5 and the “T/C Value” (colon adenocarcinoma #38; [5]) was 11%. For the same molecule, the “Wt. Loss at Nadir” value (colon adenocarcinoma #38; [5]) was -2.9 g/mouse, the “Tumor Free” value (colon adenocarcinoma #38; 960 mg/kg total, 4 hr infusion days 6, 13, 20 days of observation) was 2/7 and the “Tumor Free” value (colon adenocarcinoma #38; 960 mg/kg total, 4 hr infusion days 6, 13, 100 days of observation) was 1/7. For the same molecule, the “Drug Deaths” value (colon adenocarcinoma #38; Table 2, i.v., total dose mg/kg by Example: 2:600, 5:960, 6:132, 7:840, 16(a):1000, 18(e):180) was 0, the T/C (colon adenocarcinoma #38; iv) was 11% and the “Weight Loss” value (colon adenocarcinoma #38; mouse, in vivo, iv) was 2.9 g. The “T/C Value” ([3]; 600 mg/kg total) was 15%, the “Wt. Loss at Nadir” value ([3]; 600 mg/kg total) was -0.4 g/mouse and the “Tumor Free” value ([3]; 600 mg/kg total, 33 days of observation) was 0/5. The “Tumor Free” value ([3]; 600 mg/kg total, 132 days of observation) was 0/5, the “T/C Value” ([3]; 960 mg/kg total) was 16% and the “Wt. Loss at Nadir” value ([3]; 960 mg/kg total) was -0.4 g/mouse. The “Tumor Free” value ([3]; 960 mg/kg total, 33 days of observation) was 1/4, the “Tumor Free” value ([3]; 960 mg/kg total, 132 days of observation) was 0/4 and the “T/C Value” (Mammary 16/C; 454 mg/kg total) was 16%. The “Wt. Loss at Nadir” value (Mammary 16/C; 454 mg/kg total) was -1.2 g/mouse, the “Tumor Free” value (Mammary 16/C; 454 mg/kg total) was 0/7 and the “T/C Value” (Mammary 16/C; 720 mg/kg total) was 18%. For the same molecule, the “Wt. Loss at Nadir” value (Mammary 16/C; 720 mg/kg total) was -2.0 g/mouse, the “Tumor Free” value (Mammary 16/C; 720 mg/kg total) was 0/7 and the “T/C Value” (Mammary 16/C/Adr; [6]) was 23%. The “Wt. Loss at Nadir” value (Mammary 16/C/Adr; [6]) was -2.8 g/mouse, the “T/C Value” (Colon #51; 454 mg/kg total) was 12% and the “Wt. Loss at Nadir” value (Colon #51; 454 mg/kg total) was -2.8 g/mouse. The “Tumor Free” value (Colon #51; 454 mg/kg total) was 0/7, the “T/C Value” (Colon #51; 720 mg/kg total) was 8% and the “Wt. Loss at Nadir” value (Colon #51; 720 mg/kg total) was -1.1 g/mouse. The “Tumor Free” value (Colon #51; 720 mg/kg total) was 0/5.

In the case of `[Cl-].[Na+]` [NaCl, sodium chloride], the “glass transition temperature of excipient” value [1] is listed as -87 °C.
